According to EP1743889A1, “Sustituted pyrazoline compounds, having predetermined stereochemistry, for reducing triglycerides in blood” (Laboratorios del Dr. Esteve S.A., priority 2005, dated 2007):

Test system: triglycerides in blood plasma
Assay: In-vivo testing for regulation of triglycerides in blood plasma
Parameters: species or system male mice B6 Lep ob/ob
Details: obese mice fed with high fat diet; 30 mg/kg/day, p.o., 14 days treatment
Text: This effect is probed in obese mice fed with high fat diet. In the following paragraphs the method of this study is described.
The study is done using six weeks old male mice B6 Lep ob/ob, obtained from Charles River (France). Mice are divided in 3 groups: I (control), II (vehicle), III (example 0).
The animals of the group I receive the standard diet (D-12450B, Research Diets, NJ, USA).
The animals of the groups II and III are fed with a High Fat Diet (D-12492, Research Diets, NJ, USA), in both cases for 7 weeks (References 1 and 2).
The animals of the groups III are fed with a High Fat Diet (D-12492, Research Diets, NJ, USA), in both cases for 7 weeks (References 1 and 2).
At the end of the feeding period of 7 weeks, the treatment period (14 days) is started: Group II mice receive the vehicle (10 ml/kg/day, po, of the aqueous solution of acacia gum, 5% W/V). Group III is administered with 30 mg/kg/day, p.o., of the inventive compound (R)-5-(4-chlorophenyl)-1-(2,4-dichlorophenyl)-4,5-dihydro-pyrazole-3-carboxylic acid according to Example 0. […] The three groups of mice have the same diet than in the previous period.
At the end of the 14 days period of treatment, the blood levels of triglicerides of the animals are determined.
The analysis of the whole blood samples is done using test strips "Lipid panel" and the photometric Analyzer Cardio-Check Test System, from PA Instruments Polymer […]

## O=C(O)C1=NN(c2ccc(Cl)cc2Cl)[C@@H](c2ccc(Cl)cc2)C1 [Example 0, (R)-5-(4-chlorophenyl)-1-(2,4-dichlorophenyl)-4,5-dihydro-pyrazole-3-carboxylic acid]
  blood levels of triglicerides: inhibitor of high blood levels of triglicerides
